Like-named read-outs stand apart in the source and are kept apart here.
Key:
Assay type in all cases: cell-based
[1] = molecular target: T1, NKX2-5 transcriptional activity (Mus musculus, UniProt P42582); test: NKX2-5 luciferase reporter assay (3xNKE reporter, COS-1 cells); conditions: COS-1, luciferase reporter activity relative to control; for activity at 3 µM: read-out: NKX.3µM; for activity at 10 µM: read-out: NKX.10µM
T1 construct: expressed in transfected cells; host or cells: COS-1

[2] = molecular target: T2, GATA4–NKX2-5 transcriptional synergy (Mus musculus, UniProt P42582+Q08369); test: GATA4–NKX2-5 transcriptional synergy luciferase reporter assay (3xNKE reporter, COS-1 cells); conditions: COS-1, luciferase reporter activity relative to control
T2 construct: expressed in transfected cells; host or cells: COS-1
T2 sequence (Q08369 whole entry): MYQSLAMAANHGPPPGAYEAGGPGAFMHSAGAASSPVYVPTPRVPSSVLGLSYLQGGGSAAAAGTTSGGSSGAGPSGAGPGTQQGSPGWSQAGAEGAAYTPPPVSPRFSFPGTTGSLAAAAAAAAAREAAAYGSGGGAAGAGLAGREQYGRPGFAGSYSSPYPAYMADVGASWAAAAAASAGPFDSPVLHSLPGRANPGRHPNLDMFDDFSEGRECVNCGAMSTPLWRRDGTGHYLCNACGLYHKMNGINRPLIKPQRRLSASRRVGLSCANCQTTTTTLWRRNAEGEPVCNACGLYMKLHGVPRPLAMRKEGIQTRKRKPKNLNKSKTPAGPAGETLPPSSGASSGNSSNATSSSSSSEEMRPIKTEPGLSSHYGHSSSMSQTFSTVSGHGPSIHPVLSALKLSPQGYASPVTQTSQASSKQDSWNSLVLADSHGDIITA
T2 sequence (P42582 whole entry): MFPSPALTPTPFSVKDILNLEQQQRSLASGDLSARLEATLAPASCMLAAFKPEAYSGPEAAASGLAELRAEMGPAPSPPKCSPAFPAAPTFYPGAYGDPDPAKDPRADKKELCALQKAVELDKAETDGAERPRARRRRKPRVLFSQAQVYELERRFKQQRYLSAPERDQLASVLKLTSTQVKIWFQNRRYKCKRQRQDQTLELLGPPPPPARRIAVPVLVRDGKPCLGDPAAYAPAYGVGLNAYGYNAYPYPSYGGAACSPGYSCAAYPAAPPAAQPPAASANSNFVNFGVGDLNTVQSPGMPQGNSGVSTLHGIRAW

[3] = molecular target: T3, GATA4 transcriptional activity (Mus musculus, UniProt Q08369); test: GATA4 luciferase reporter assay (tandem GATA-site reporter, COS-1 cells); conditions: COS-1, luciferase reporter activity relative to control
T3 construct: expressed in transfected cells; host or cells: COS-1
T3 sequence (Q08369 whole entry): as the sequence (Q08369 whole entry) above

[4] = test system: rat BNP promoter activity in neonatal rat ventricular myocytes; test: BNP promoter luciferase reporter in neonatal cardiomyocytes with or without endothelin-1
Experimental: Five compounds (GATA4–NKX2-5 synergy inhibitors 1, 61, and 65; the synergy activator 2; and the NKX2-5 activity inhibitor 47c) were selected for studies in neonatal cardiomyocytes, which were treated with endothelin-1 (ET-1), a well-established hypertrophic agonist that activates the gene expression of both ANP and BNP (Figure 4). The myocytes were transfected with construct containing −534/+4 proximal region of rat BNP promoter with GATA4 and NKX2-5 binding sites in front of luciferase before exposure to compounds and ET-1, which was added 1 h after the compounds.
Figure 4 Effects of the compounds 1, 2, 47c, 61, and 65 on BNP gene activation in cardiomyocytes. Neonatal cardiomyocytes were transfected with rat BNP luciferase reporter for 24 h. The cells were exposed to compounds and 1 h later to endothelin-1 (ET-1) for 24 h. The results are expressed as +SD (n = 3 or 9 for DMSO groups). ***P < 0.001 vs DMSO; **P < 0.01 vs DMSO; *P < 0.05 vs DMSO (one-way ANOVA followed by Tukey’s HSD or Welch ANOVA followed by Games–Howell); ^###P < 0.001 vs DMSO, no stimulus (independent samples Student’s t test).
The plasmids expressing mouse GATA4 protein, pMT2-GATA4, and empty pMT2 were gifts from D. B. Wilson (Department of Pediatrics, St. Louis Children’s Hospital, St. Louis, MO).[44] The plasmids expressing mouse NKX2-5 protein, pMT2-NKX2-5, have been described earlier.[28] The luciferase reporter plasmid used in GATA4–NKX2-5 transcriptional synergy assay and NKX transcriptional assay, pGL3-3xHA, contains three high affinity binding sites for NKX2-5.[28] The luciferase reporter plasmid used in GATA transcriptional assay, NP-112, contains tandem GATA-sites and minimal promoter of rat brain natriuretic peptide (BNP) gene.[45] The pGL3-BNP luciferase reporter containing −534/+4 bp rat BNP proximal promoter described previously was used in hypertrophy assay.[46]
The neonatal rat ventricular myocytes were isolated from 2- to 3-day-old Wistar rats, as described earlier.[29],[32] Rat pups were acquired from the experimental animal facility of the University of Helsinki with an internal use license (KEK17-012). Animals were housed in standard conditions, and their handling and all procedures were carried out in accordance with University of Helsinki institutional guidelines, which conform to the National Research Council (U.S.) Guide for the Care and Use of Laboratory Animals.[47] The cells were seeded at 50 000 cells/well in Isoplate-96 microplates (PerkinElmer, Turku, Finland) and cultured for 18–20 h with Dulbecco’s modified Eagle medium (DMEM)/F12 culture medium containing 2.5 mM L-glutamine, supplemented with 100 IU/mL penicillin–streptomycin and 10% fetal bovine serum (all from Gibco, Thermo Scientific). Transfections were carried out for 24 h in serum free media (CSFM; DMEM/F12, 2.5 mg/mL bovine serum albumin, 1 μM insulin, 2.5 mM L-glutamine, 32 nM selenium, 2.8 mM sodium pyruvate, 5.64 μg/mL transferrin, 1 nM T3, and 100 IU/mL PS) by using 100 ng of pGL3-BNP luciferase plasmid per well in a 1:3 ratio of DNA/transfection reagent (Fugene 6, Promega). […] After 24 h, the luminescence was measured as above.
Results from cardiomyocyte experiments are expressed as mean + SD from at least three independent experiments. Data were analyzed using IBM SPSS Statistics 24 software. […] Significance between ET-1 and DMSO samples was analyzed with independent samples Student’s t test. […]

COS-1 cells [5] = test: MTT assay (cell viability); conditions: cell viability
COS-1 cells [6] = test: LDH assay (necrosis)

T1 sequence (P42582 whole entry): as the sequence (P42582 whole entry) above

activity at 3 µM ([1]; 3 µM)	activity at 10 µM ([1]; 10 µM)	activity at 3 µM ([2]; 3 µM)	activity at 10 µM ([2]; 10 µM)	activity at 3 µM ([3]; 3 µM)	activity at 10 µM ([3]; 10 µM)	Compound	MTT.1µM (COS-1 cells [5])	MTT.3µM (COS-1 cells [5])	MTT.10µM (COS-1 cells [5])	MTT.30µM (COS-1 cells [5])	LDH.1µM (COS-1 cells [6])	LDH.3µM (COS-1 cells [6])	LDH.10µM (COS-1 cells [6])	LDH.30µM (COS-1 cells [6])	also measured
						CCN(c1ccc(NC(=O)c2cnsc2)cc1)C(C)C [Compound 61]									activity at 3 µM ([1]; compound 3 µM): 38.2%; activity at 10 µM ([1]; compound 10 µM): 10.7%; activity at 3 µM ([2]; compound 3 µM): 28.8%; activity at 10 µM ([2]; compound 10 µM): 11.6%; activity at 3 µM ([3]; compound 3 µM): 71.1%; activity at 10 µM ([3]; compound 10 µM): 20.4%; inhibition of the ET-1 hypertrophic response, BNP gene activity (in words) ([4]; 30 μM, ET-1 added 1 h after compound): the most potent inhibitor of the hypertrophic response; effect on BNP promoter activity in cardiomyocytes (in words) ([4]; neonatal cardiomyocytes, 24 h): most strongly inhibited the BNP promoter activity
75.3%	60.7%	62.4%	52.7%	92.3%	61.8%	CCN(CC)c1ccc(NC(=O)c2ccnn2-c2ccccc2)cc1 [SI88]	105.89	89.83	83.67	88.35	2.08	-0.13	0.07	-1.27	
101%	89%	80.7%	93.5%	103%	81.8%	CCN(CC)c1ccc(NC(=O)c2c[nH]nc2-c2ccccc2)cc1 [SI89]	100.37	105.87	100.53	96.92	2.32	1.68	1.11	-1.15	
88%	65.2%	90.6%	72.1%	85.3%	76.5%	COc1ccc(-c2cc(N)nn2C(=O)c2c(-c3ccccc3)noc2C)cc1 [SI137, [3-Amino-5-(4-methoxyphenyl)-1H-pyrazol-1-yl] (5-methyl-3-phenylisoxazol-4-yl) methanone]	100.57	105.12	104.9	96.15	3.49	2.98	0.2	-2.71	
						ET-1: endothelin-1, a well-established hypertrophic agonist that activates the gene expression of both ANP and BNP [reference compound]									increase in BNP gene activity ([4]; neonatal cardiomyocytes, 24 h): ~3 fold
